Reference: ChEMBL document CHEMBL3616386, “3-Propionyl-thiazolidine-4-carboxylic acid ethyl esters: a family of antiproliferative thiazolidines” (Medchemcomm, 2015)
pIC50: −log10 of the molar value.

Experiments:
[1] = Cytotoxicity against human HuH7 cells assessed as inhibition of cell proliferation by sulforhodamine B assay; format: functional, cell-based; conditions: Huh-7
[2] = Cytotoxicity against human MV cells assessed as inhibition of cell proliferation by sulforhodamine B assay; format: functional, cell-based

| SMILES | pIC50 [1] | pIC50 [2] |
| --- | --- | --- |
| C#CC(=O)N1C(c2ccccc2)SC[C@@H]1C(=O)OCC (some centres not stated) | 5.28 | 6.40 |
| C#CC(=O)N1C(c2ccc(OC)cc2)SC[C@@H]1C(=O)OCC (mixture of isomers) | 5.85 | 6.15 |
| C#CC(=O)N1C(c2ccc(F)cc2)SC[C@@H]1C(=O)OCC (mixture of isomers) | 6.15 | 6.40 |
| C#CC(=O)N1C(c2cccc(F)c2)SC[C@@H]1C(=O)OCC (mixture of isomers) | 5.85 | 5.77 |
| C#CC(=O)N1C(c2ccccc2F)SC[C@@H]1C(=O)OCC (mixture of isomers) | 5.77 | 5.77 |
| C#CC(=O)N1C(c2ccc(C#N)cc2)SC[C@@H]1C(=O)OCC (mixture of isomers) | 5.59 | 5.62 |
| C#CC(=O)N1C(CCCCC)SC[C@@H]1C(=O)OCC (mixture of isomers) | 5.74 | 5.70 |
| C#CC(=O)N1C(CCCC)SC[C@@H]1C(=O)OCC (mixture of isomers) | 6.30 | 6.40 |
| C#CC(=O)N1C(C(CC)CCCC)SC[C@@H]1C(=O)OCC (mixture of isomers) | 5.77 | 5.80 |
| C#CC(=O)N1C(CC(C)CC(C)(C)C)SC[C@@H]1C(=O)OCC (mixture of isomers) | 5.80 | 5.96 |
| C#CC(=O)N1C(C(C)CCC)SC[C@@H]1C(=O)OCC (mixture of isomers) | 6.22 | 6.30 |
| C#CC(=O)N1C(C(C)(C)C)SC[C@@H]1C(=O)OCC (mixture of isomers) | 6.10 | 6.05 |
| CC[C@@]1(O)C(=O)OCc2c1cc1n(c2=O)Cc2cc3ccccc3nc2-1 [CAMPTOTHECIN] | 7.00 | > 6.00 |
| O=c1[nH]cc(F)c(=O)[nH]1 [FLUOROURACIL] | – | 5.00 |
